Data: patent publication US10206907B2, “Compounds useful for the treatment of degenerative and inflammatory diseases” (GALAPAGOS NV, priority 2008, dated 2019)
pEC50, pIC50: −log10 of the molar value. Read-outs that look alike come from different tables or passages of the source.

Key:
[1] = Microsomal stability, human liver microsomes; assay type: in vitro ADME; conditions: percentage of compound remaining after 60 minutes, 3 μM compound
Method in brief: (§1)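 Percent parent remaining after 60 min was determined by LCMS against a time-zero sample quenched before microsome addition. Incubations ran at 37°C with liver microsomes and a G6PDH-based NADPH-regenerating cofactor mix. Quench was MeOH or ACN (1:1).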

[2] = Microsomal stability, rat liver microsomes; assay type: in vitro ADME; conditions: percentage of compound remaining after 60 minutes, 3 μM compound
Method in brief: as §1

[3] = biological target: Recombinant human JAK1 catalytic domain (Homo sapiens (Human), UniProt P23458); experiment: JAK1 inhibition assay; assay type: biochemical
Method in brief: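 IC50 values come from dose-response series, with each point expressed as percent inhibition of cpm. Vehicle sets full activity and 10 μM staurosporine sets background. Incorporated radioactivity counted by scintillation after washing with 75 mM phosphoric acid.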

[4] = tested on: MMP13 in SW1353 cells; experiment: OSM/IL-1β signaling assay (MMP13 levels in SW1353 cells); assay type: cell-based; conditions: Homo sapiens; SW1353 cells, OSM and IL-1β triggered, MMP13 levels 48 hours after triggering; read-out: MMP13 EC50;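 also: secreted MMP13 captured by antibody, activated with APMA and its activity read by fluorescence, inhibition scaled between vehicle-treated triggered wells (0%) and untriggered wells (100%)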
[5] = biological target: Recombinant human TYK2 catalytic domain (Homo sapiens (Human), UniProt P29597); experiment: TYK2 inhibition assay; assay type: biochemical; conditions: semi-quantitative score
Description: After 90 min at 30° C., reactions were stopped by adding of 25 μL/well of 150 mM phosphoric acid. […] Plates were washed 6 times with 300 μL per well of a 75 mM phosphoric acid solution and the bottom of the plates was sealed. 40 μL/well of Microscint-20 was added, the top of the plates was sealed and readout was performed using the Topcount (Perkin Elmer). Kinase activity was calculated by subtracting counts per minute (cpm) obtained in the presence of a positive control inhibitor (10 μM staurosporine) from cpm obtained in the presence of vehicle. The ability of a test compound to inhibit this activity was determined as: Percentage inhibition=((cpm determined for sample with test compound present−cpm determined for sample with positive control inhibitor) divided by (cpm determined in the presence of vehicle−cpm determined for sample with positive control inhibitor))*100%.
Dose dilution series were prepared for the compounds enabling the testing of dose-response effects in the TYK2 assay and the calculation of the IC50 for each compound.

[6] = Caco2 permeability (bi-directional); assay type: in vitro ADME, human; conditions: human, pH 7.4; for Papp A→B at 1 h, 10 µM: Caco-2, apical to basolateral, read-out: Papp (A2B); for efflux ratio at 1 h, 10 µM: Caco-2, ratio of PappB>A/PappA>B
Method in brief: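 Compound concentrations in both chambers were measured by LC-MS/MS after 1 h incubation at 37 °C on an orbital shaker. Efflux ratio is PappB>A over PappA>B. Lucifer Yellow (50 μM in donor) confirmed layer integrity, with permeability of ≤100 nm/s required.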

[7] = biological target: Recombinant human JAK3 catalytic domain (Homo sapiens (Human), UniProt P52333); experiment: JAK3 inhibition assay; assay type: biochemical; conditions: semi-quantitative score
[8] = biological target: Recombinant human JAK2 catalytic domain (Homo sapiens (Human), UniProt O60674); experiment: JAK2 inhibition assay; assay type: biochemical; conditions: semi-quantitative score
Method in brief: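 Activity was taken as vehicle cpm minus cpm with 10 μM staurosporine, and inhibition was expressed on that scale. Incubation was 90 min at 30 °C, followed by acid quench, phosphoric acid washes and Microscint counting. Compounds were tested as dose series to obtain IC50.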

[9] = tested on: JAK-STAT signalling in HeLa cells; experiment: JAK-STAT signalling assay (OSM-triggered pSTAT1(2)-luciferase reporter in HeLa cells); assay type: cell-based; conditions: Homo sapiens; HeLa cells, OSM-triggered pSTAT1(2)-luciferase reporter; read-out: STAT signalling EC50
Method in brief: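 Read-out is oncostatin M–driven pSTAT1(2)-luciferase activity, corrected by co-transfected LacZ β-galactosidase, in transiently transfected HeLa cells cultured overnight at 37 °C, 10% CO2. Inhibition percentages against positive and negative controls were plotted across doses to derive EC50.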

[10] = tested on: TNF-alpha release; experiment: Septic shock model (LPS-induced TNF release); assay type: in vivo, mouse; conditions: 30 mg/kg po, BALB/cJ mice, LPS ip; statistically significant
Description: Injection of lipopolysaccharide (LPS) induces a rapid release of soluble tumour necrosis factor (TNF-alpha) into the periphery. This model is used to analyse prospective blockers of TNF release in vivo.
Six BALB/cJ female mice (20 g) per group were treated at the intended dosing once, po. Thirty minutes later, LPS (15 μg/kg; E. Coli serotype 0111:B4) was injected ip. Ninety minutes later, mice were euthanized and blood was collected. Circulating TNF alpha levels were determined using commercially available ELISA kits. Dexamethasone (5 μg/kg) was used as a reference anti-inflammatory compound. Selected compounds are tested at one or multiple doses, e.g. 3 and/or 10 and/or 30 mg/kg, po.

Recombinant human TYK2 catalytic domain, sequence (P29597 871-1187): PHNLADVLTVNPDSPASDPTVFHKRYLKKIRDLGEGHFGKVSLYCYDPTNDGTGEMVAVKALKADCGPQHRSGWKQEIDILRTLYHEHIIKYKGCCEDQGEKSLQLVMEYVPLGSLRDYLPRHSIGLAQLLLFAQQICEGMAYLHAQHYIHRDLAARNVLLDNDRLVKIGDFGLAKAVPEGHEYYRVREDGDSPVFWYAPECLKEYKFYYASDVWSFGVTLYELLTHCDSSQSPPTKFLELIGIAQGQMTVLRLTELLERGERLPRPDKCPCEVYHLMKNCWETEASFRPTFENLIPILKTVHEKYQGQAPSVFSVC
Recombinant human JAK2 catalytic domain, sequence (O60674 808-1132): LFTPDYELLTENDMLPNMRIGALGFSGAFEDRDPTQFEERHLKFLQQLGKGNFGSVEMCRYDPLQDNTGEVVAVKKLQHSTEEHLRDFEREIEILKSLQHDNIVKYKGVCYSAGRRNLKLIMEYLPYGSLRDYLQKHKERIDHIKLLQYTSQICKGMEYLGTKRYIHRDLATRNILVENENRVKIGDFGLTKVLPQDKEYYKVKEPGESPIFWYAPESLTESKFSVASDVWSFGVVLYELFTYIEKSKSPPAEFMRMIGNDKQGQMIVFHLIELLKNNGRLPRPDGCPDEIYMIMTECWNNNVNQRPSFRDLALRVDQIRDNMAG
Recombinant human JAK3 catalytic domain, sequence (P52333 781-1124): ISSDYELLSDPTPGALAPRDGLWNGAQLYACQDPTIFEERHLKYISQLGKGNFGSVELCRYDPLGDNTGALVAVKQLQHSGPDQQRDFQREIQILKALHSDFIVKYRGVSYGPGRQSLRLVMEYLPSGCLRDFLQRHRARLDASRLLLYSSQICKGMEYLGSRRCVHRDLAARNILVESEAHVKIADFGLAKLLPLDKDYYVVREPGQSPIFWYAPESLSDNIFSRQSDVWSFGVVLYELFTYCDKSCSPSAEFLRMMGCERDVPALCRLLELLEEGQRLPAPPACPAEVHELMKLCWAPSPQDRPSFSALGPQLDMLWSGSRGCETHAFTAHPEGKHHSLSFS
Recombinant human JAK1 catalytic domain, sequence (P23458 850-1154): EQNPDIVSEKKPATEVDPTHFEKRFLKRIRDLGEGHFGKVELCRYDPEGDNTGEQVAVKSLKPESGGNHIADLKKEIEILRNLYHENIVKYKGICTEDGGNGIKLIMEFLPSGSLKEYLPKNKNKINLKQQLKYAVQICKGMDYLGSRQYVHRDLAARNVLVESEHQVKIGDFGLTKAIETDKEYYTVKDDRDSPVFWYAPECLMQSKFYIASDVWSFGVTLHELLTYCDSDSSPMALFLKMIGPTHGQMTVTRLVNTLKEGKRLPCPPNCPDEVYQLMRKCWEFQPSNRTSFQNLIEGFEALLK

Row | SMILES | Microsomal Stability Human (%) [1] | Microsomal Stability Rat (%) [2] | pIC50 ([3]; semi-quantitative score) | pEC50 [4] | pIC50 [5] | Papp A→B at 1 h, 10 µM [6] [×10⁻⁶ cm/s] | efflux ratio at 1 h, 10 µM [6] | pIC50 [7] | pIC50 [8] | pEC50 [9] | reduction in the TNF release [10] [%] | pIC50 [3]
1 | O=C(Nc1nc2cccc(-c3ccc(C(=O)N4CCC(F)(F)C4)cc3)n2n1)C1CC1 [Compound 271, Cyclopropanecarboxylic acid (5-[4-(3,3-difluoro-pyrrolidine-1-carbonyl)-phenyl]-[1,2,4]triazolo[1,5-a]pyridin-2-yl}-amide] | **** (**** 76-100) | **** (**** 76-100) | > 7.00 | 6.00 to 6.30 | > 7.00 | 4 | 13 | 6.30 to 7.00 | > 7.00 | 6.30 to 7.00 | – | –
2 | O=C(Nc1nc2cccc(-c3ccc(OCc4ccccc4)c(F)c3)n2n1)C1CC1 [Compound 15, N-(5-(4-(benzyloxy)-3-fluorophenyl)-[1,2,4]triazolo[1,5-a]pyridin-2-yl)cyclopropanecarboxamide] | ** (** 26-50) | * (* 0-25) | > 7.00 | < 6.00 | < 6.00 | – | 0.91 | 6.30 to 7.00 | > 7.00 | 6.30 to 7.00 | – | –
3 | O=C(Nc1nc2cccc(-c3ccc(OCc4ccccn4)cc3)n2n1)C1CC1 [Compound 37, N-(5-(4-(pyridin-2-ylmethoxy)phenyl)-[1,2,4]triazolo[1,5-a]pyridin-2-yl)cyclopropanecarboxamide] | *** (*** 51-75) | *** (*** 51-75) | – | < 6.00 | – | – | – | – | – | 6.00 to 6.30 | > 50 | –
4 | O=C(Nc1nc2cccc(-c3ccc(OC4CCCC4)cc3)n2n1)C1CC1 [Compound 40, N-(5-(4-(cyclopentyloxy)phenyl)-[1,2,4]triazolo[1,5-a]pyridin-2-yl)cyclopropanecarboxamide] | * (* 0-25) | * (* 0-25) | > 7.00 | 6.30 to 9.00 | 6.00 to 6.30 | 44.9 | 0.67 | 6.00 to 6.30 | > 7.00 | 6.30 to 7.00 | – | –
5 | NC(=O)c1ccccc1NCc1ccc(-c2cccc3nc(NC(=O)C4CC4)nn23)cc1 [Compound 306, 2-{4-[2-(Cyclopropanecarbonyl-amino)-[1,2,4]triazolo[1,5-a]pyridin-5-yl]-benzylamino}-benzamide] | *** (*** 51-75) | ** (** 26-50) | > 7.00 | 6.00 to 6.30 | > 7.00 | 6.55 | 6.55 | > 7.00 | > 7.00 | 6.30 to 7.00 | – | –
6 | CC(=O)Nc1nc2cccc(-c3ccc(OCc4ccccc4)cc3)n2n1 [Compound 163, N-(5-(4-(benzyloxy)phenyl)-[1,2,4]triazolo[1,5-a]pyridin-2-yl)acetamide] | *** (*** 51-75) | ** (** 26-50) | – | < 6.00 | < 6.00 | – | 0.85 | 6.30 to 7.00 | > 7.00 | < 6.00 | – | > 7.00
7 | O=C(Nc1nc2cccc(-c3ccc(S(=O)(=O)NC4CC4)cc3)n2n1)C1CC1 [Compound 13, N-(5-(4-(N-cyclopropylsulfamoyl)phenyl)-[1,2,4]triazolo[1,5-a]pyridin-2-yl)cyclopropanecarboxamide] | *** (*** 51-75) | **** (**** 76-100) | > 7.00 | < 6.00 | 6.00 to 6.30 | 3.03 | 11.9 | < 6.00 | > 7.00 | < 6.00 | – | –

Continued, in another order:

Row | Microsomal Stability Human (%) [1] | Microsomal Stability Rat (%) [2] | pIC50 ([3]; semi-quantitative score) | pEC50 [4] | pIC50 [5] | Papp A→B at 1 h, 10 µM [6] [×10⁻⁶ cm/s] | efflux ratio at 1 h, 10 µM [6] | pIC50 [7] | pIC50 [8] | pEC50 [9] | SMILES | reduction in the TNF release [10] [%] | pIC50 [3]
8 | ** (** 26-50) | ** (** 26-50) | > 7.00 | < 6.00 | < 6.00 | 8.23 | 2.9 | 6.00 to 6.30 | 6.30 to 7.00 | 6.00 to 6.30 | O=C(NCCc1ccccc1)c1ccc(-c2cccc3nc(NC(=O)C4CC4)nn23)c(F)c1 [Compound 111, 4-(2-(cyclopropanecarboxamido)-[1,2,4]triazolo[1,5-a]pyridin-5-yl)-3-fluoro-N-phenethylbenzamide] | – | –
9 | *** (*** 51-75) | *** (*** 51-75) | > 7.00 | < 6.00 | > 7.00 | 8.45 | 5.98 | 6.30 to 7.00 | > 7.00 | 6.30 to 7.00 | O=C(Nc1nc2cccc(-c3ccc(CNc4ccon4)cc3)n2n1)C1CC1 [Compound 302, Cyclopropanecarboxylic acid {5-[4-(isoxazol-3-ylaminomethyl)-phenyl]-[1,2,4]triazolo[1,5-a]pyridin-2-yl}-amide] | – | –
10 | **** (**** 76-100) | ** (** 26-50) | > 7.00 | < 6.00 | 6.00 to 6.30 | 11.4 | 2.97 | < 6.00 | 6.30 to 7.00 | < 6.00 | O=C(Nc1nc2cccc(-c3ccc(C(=O)N4CCCCC4)cc3)n2n1)C1CC1 [Compound 17] | – | –
11 | **** (**** 76-100) | *** (*** 51-75) | > 7.00 | < 6.00 | 6.30 to 7.00 | 4.3 | 10.1 | < 6.00 | > 7.00 | 6.00 to 6.30 | O=C(Nc1nc2cccc(-c3ccc(CC(=O)N4CC(F)(F)C4)cc3)n2n1)C1CC1 [Compound 317, Cyclopropanecarboxylic acid (5-{4-[2-(3,3-difluoro-azetidin-1-yl)-2-oxo-ethyl]-phenyl}-[1,2,4]triazolo[1,5-a]pyridin-2-yl)-amide] | – | –
12 | *** (*** 51-75) | *** (*** 51-75) | > 7.00 | < 6.00 | < 6.00 | 28.8 | 1 | < 6.00 | 6.30 to 7.00 | < 6.00 | Cn1ccc(COc2ccc(-c3cccc4nc(NC(=O)C5CC5)nn34)cc2)n1 [Compound 48] | – | –
13 | * (* 0-25) | * (* 0-25) | > 7.00 | < 6.00 | 6.00 to 6.30 | 10.9 | 3.64 | 6.00 to 6.30 | > 7.00 | 6.30 to 7.00 | Cc1n[nH]c(C)c1CCOc1ccc(-c2cccc3nc(NC(=O)C4CC4)nn23)cc1 [Compound 51] | – | –
14 | * (* 0-25) | * (* 0-25) | > 7.00 | 6.00 to 6.30 | < 6.00 | 19 | 2.5 | 6.00 to 6.30 | > 7.00 | 6.00 to 6.30 | O=C(CCc1ccccc1)Nc1ccc(-c2cccc3nc(NC(=O)C4CC4)nn23)cc1 [Compound 109, N-(5-(4-(3-phenylpropanamido)phenyl)-[1,2,4]triazolo[1,5-a]pyridin-2-yl)cyclopropanecarboxamide] | – | –
